Where two headings read alike, the source gives them in different places. Starred links: 1 amine or outer side, 2 acyl side, 3 side chain; linkers in the order of their positions; H or OH if unused. Non-standard residues stand in square brackets, D forms with d. Residues, ends and D or L forms follow the SMILES beside them. Groups on a side chain read outwards from the residue. No end group written: not given here. *: point of attachment. γGlu = O=C(O)[C@H](CCC(=O)[*:2])N[*:1]; Palmitoyl = CCCCCCCCCCCCCCCC(=O)*
Legend:
human GCGR = target: T1, human GCGR (Homo sapiens, UniProt P47871); test: cAMP activity assay (HitHunter cAMP XS), cells expressing human GCGR; assay type: cell-based; conditions: for EC50: read-out: EC50 hGCGR; for Ratio: EC50 hGCGR divided by EC50 hGLP1
T1 construct: expressed in transfected cells
T1 sequence (P47871 26-477): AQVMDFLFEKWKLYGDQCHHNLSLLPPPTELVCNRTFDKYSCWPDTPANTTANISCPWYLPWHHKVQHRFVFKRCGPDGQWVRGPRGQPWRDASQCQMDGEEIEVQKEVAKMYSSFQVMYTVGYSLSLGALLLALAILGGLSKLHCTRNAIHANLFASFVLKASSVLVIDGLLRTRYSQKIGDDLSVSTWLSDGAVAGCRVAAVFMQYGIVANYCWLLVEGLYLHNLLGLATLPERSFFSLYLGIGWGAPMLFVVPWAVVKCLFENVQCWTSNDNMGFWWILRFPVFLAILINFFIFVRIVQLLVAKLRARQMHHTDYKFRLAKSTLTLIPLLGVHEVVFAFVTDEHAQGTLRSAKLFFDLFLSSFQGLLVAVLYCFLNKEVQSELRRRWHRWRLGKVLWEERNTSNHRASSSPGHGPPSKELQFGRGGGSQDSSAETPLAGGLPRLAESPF
Protocol: (§1) Peptides were dissolved in 100% DMSO and serially diluted to generate 10 point titrations. The peptide solutions were then transferred into 384-well assay plates (150 nL/well). Assay ready frozen cells expressing human GLP1R or human GCGR were suspended in growth media consisting of DMEM medium (GIBCO), 10% FBS (GIBCO), 1×NEAA(GIBCO), 1× P/S (GIBCO), 10 ug/ml Blasticidin (GIBCO) and 200 μg/mL Hygromycin (GIBCO). […] The cell suspensions (15 μL) were then added to the assay plates containing the peptide solutions (30,000 cells/well for human GCGR; 10,000 cells/well for human GLP1R). The cells were incubated for 1 hour at room temperature in the dark. Production of cAMP was determined using HitHunter™ cAMPXS kits (DiscoverX) following manufacturer protocol. The plates were incubated for overnight at room temperature in the dark. Luminescence was measured using an EnVision Multilabel plate reader (Perkin Elmer). […] EC50 values were calculated using uses a 4 parameter logistic fit based on the Levenberg-Marquardt algorithm.

human GLP1R = target: T2, human GLP1R (Homo sapiens, UniProt P43220); test: cAMP activity assay (HitHunter cAMP XS), cells expressing human GLP1R; assay type: cell-based
T2 construct: expressed in transfected cells
T2 sequence (P43220 24-463): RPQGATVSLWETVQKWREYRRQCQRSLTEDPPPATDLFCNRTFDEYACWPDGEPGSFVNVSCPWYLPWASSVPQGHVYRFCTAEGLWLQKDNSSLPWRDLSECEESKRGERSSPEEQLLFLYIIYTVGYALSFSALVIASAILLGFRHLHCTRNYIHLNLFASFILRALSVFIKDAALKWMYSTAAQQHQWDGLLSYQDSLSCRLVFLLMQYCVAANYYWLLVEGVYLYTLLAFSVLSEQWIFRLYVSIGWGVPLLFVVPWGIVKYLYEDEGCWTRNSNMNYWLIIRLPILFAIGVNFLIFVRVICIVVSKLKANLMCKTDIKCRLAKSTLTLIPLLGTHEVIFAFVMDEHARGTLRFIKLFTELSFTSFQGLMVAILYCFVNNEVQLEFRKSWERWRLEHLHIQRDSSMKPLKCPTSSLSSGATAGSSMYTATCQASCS
Protocol: as §1

[1] = Table 2, cAMP production, read-out: EC50 hGLP1R
[2] = Table 7, lipidated analogs vs parental peptides
[3] = Table 7, lipidated analogs vs parental peptides, read-out: EC50 hGLP1

| Compound | EC50 (human GCGR; Table 2, cAMP production) | EC50 (human GLP1R; [1]) | Ratio (human GCGR; Table 7) | EC50 (human GCGR; [2]) | EC50 (human GLP1R; [3]) | balance of activity at the GCG and GLP-1 receptors (human GCGR; in words, both receptors) |
| --- | --- | --- | --- | --- | --- | --- |
| CC[C@H](C)[C@H](NC(=O)[C@H](CC(C)C)NC(=O)[C@H](Cc1c[nH]c2ccccc12)NC(=O)[C@H](CCC(N)=O)NC(=O)[C@@H](NC(=O)[C@H](Cc1ccccc1)NC(=O)[C@H](CC(=O)O)NC(=O)[C@H](CCC(N)=O)NC(=O)[C@H](C)NC(=O)[C@H](CCCNC(=N)N)NC(=O)[C@H](CCCNC(=N)N)NC(=O)[C@H](C)NC(=O)[C@H](CC(=O)O)NC(=O)[C@H](CC(C)C)NC(=O)[C@H](Cc1ccc(O)cc1)NC(=O)[C@H](CCCCN)NC(=O)[C@H](CO)NC(=O)[C@H](Cc1ccc(O)cc1)NC(=O)[C@H](CC(=O)O)NC(=O)[C@H](CO)NC(=O)[C@@H](NC(=O)[C@H](Cc1ccccc1)NC(=O)[C@@H](NC(=O)CNC(=O)[C@H](CCC(N)=O)NC(=O)[C@H](CO)NC(=O)[C@@H](N)Cc1c[nH]cn1)[C@@H](C)O)[C@@H](C)O)C(C)C)C(=O)N[C@@H](CCCNC(=N)N)C(=O)N[C@H](C(N)=O)[C@@H](C)O [PD25] | 0.04 nM | 0.02 nM | – | – | – | – |
| HSQGTFTSDYSKYLDELRAYDFVQWLMNT-NH2 [PD27] | 0.05 nM | 0.03 nM | – | – | – | – |
| HSQGTFTSDYSKYLDSRMAYDFVQWLMNT-NH2 [PD56] | 0.08 nM | 0.05 nM | – | – | – | – |
| H-HSQGTFTSDYSKYLDSIRAQDFVQWLMDT-NH2 [PD36] | 0.04 nM | 0.06 nM | – | – | – | – |
| CCCCCCCCCCCCCCCC(=O)N[C@@H](CCC(=O)N[C@@H](CCC(=O)NCCCC[C@H](NC(=O)[C@H](CC(=O)O)NC(=O)[C@H](CO)NC(=O)[C@@H](NC(=O)[C@H](Cc1ccccc1)NC(=O)[C@@H](NC(=O)CNC(=O)[C@H](CCC(N)=O)NC(=O)[C@@H](CO)NC(=O)[C@@H](N)Cc1c[nH]cn1)[C@@H](C)O)[C@@H](C)O)C(=O)N[C@@H](CO)C(=O)N[C@@H](CCCCN)C(=O)N[C@@H](Cc1ccc(O)cc1)C(=O)N[C@@H](CC(C)C)C(=O)N[C@@H](CC(=O)O)C(=O)N[C@@H](CO)C(=O)N[C@@H](CCCNC(=N)N)C(=O)N[C@@H](CCCNC(=N)N)C(=O)N[C@@H](C)C(=O)N[C@@H](Cc1c[nH]cn1)C(=O)N[C@@H](CC(=O)O)C(=O)N[C@@H](Cc1ccccc1)C(=O)N[C@H](C(=O)N[C@@H](CCC(N)=O)C(=O)N[C@@H](Cc1c[nH]c2ccccc12)C(=O)N[C@@H](CC(C)C)C(=O)N[C@@H](CC(C)C)C(=O)N[C@@H](CC(N)=O)C(=O)N[C@H](C(N)=O)[C@@H](C)O)C(C)C)C(=O)O)C(=O)O [TP535] (H-H[dS]QGTFTSDK([γGlu-γGlu-Palmitoyl])SKYLDSRRAHDFVQWLLNT-NH2; N-terminus assumed) | – | – | 0.4 | 0.02 nM | 0.05 nM | – |
| HSQGTFTSDYSKYLDNKRAQDFVQWLMQT-NH2 [PD37] | – | – | 3.2 | 0.16 nM | 0.05 nM | – |
| CCCCCCCCCCCCCCCC(=O)N[C@@H](CCC(=O)N[C@@H](CCC(=O)NCCCC[C@H](NC(=O)[C@H](CC(=O)O)NC(=O)[C@H](CO)NC(=O)[C@@H](NC(=O)[C@H](Cc1ccccc1)NC(=O)[C@@H](NC(=O)CNC(=O)[C@H](CCC(N)=O)NC(=O)[C@@H](CO)NC(=O)[C@@H](N)Cc1c[nH]cn1)[C@@H](C)O)[C@@H](C)O)C(=O)N[C@@H](CO)C(=O)N[C@@H](CCCCN)C(=O)N[C@@H](Cc1ccc(O)cc1)C(=O)N[C@@H](CC(C)C)C(=O)N[C@@H](CC(=O)O)C(=O)N[C@@H](C)C(=O)N[C@@H](CCCNC(=N)N)C(=O)N[C@@H](C)C(=O)N[C@@H](C)C(=O)N[C@@H](Cc1c[nH]cn1)C(=O)N[C@@H](CC(=O)O)C(=O)N[C@@H](Cc1ccccc1)C(=O)N[C@H](C(=O)N[C@@H](CCC(N)=O)C(=O)N[C@@H](Cc1c[nH]c2ccccc12)C(=O)N[C@@H](CC(C)C)C(=O)N[C@@H](CC(C)C)C(=O)N[C@@H](CC(N)=O)C(=O)N[C@H](C(N)=O)[C@@H](C)O)C(C)C)C(=O)O)C(=O)O [TP559] (H-H[dS]QGTFTSDK([γGlu-γGlu-Palmitoyl])SKYLDARAAHDFVQWLLNT-NH2) | – | – | 0.4 | 0.02 nM | 0.05 nM | – |
| CC(C)C[C@H](NC(=O)[C@H](CC(C)C)NC(=O)[C@H](Cc1c[nH]c2ccccc12)NC(=O)[C@H](CCC(N)=O)NC(=O)[C@@H](NC(=O)[C@H](Cc1ccccc1)NC(=O)[C@H](CC(=O)O)NC(=O)[C@H](CCC(N)=O)NC(=O)[C@H](C)NC(=O)[C@H](CCCNC(=N)N)NC(=O)[C@H](CCCNC(=N)N)NC(=O)[C@H](CO)NC(=O)[C@H](CC(=O)O)NC(=O)[C@H](CC(C)C)NC(=O)[C@H](Cc1ccc(O)cc1)NC(=O)[C@H](CCCCN)NC(=O)[C@H](CO)NC(=O)[C@H](Cc1ccc(O)cc1)NC(=O)[C@H](CC(=O)O)NC(=O)[C@H](CO)NC(=O)[C@@H](NC(=O)[C@H](Cc1ccccc1)NC(=O)[C@@H](NC(=O)CNC(=O)[C@H](CCC(N)=O)NC(=O)[C@H](CO)NC(=O)[C@@H](N)Cc1c[nH]cn1)[C@@H](C)O)[C@@H](C)O)C(C)C)C(=O)N[C@@H](CC(N)=O)C(=O)N[C@@H](CCC(N)=O)C(N)=O [PD57] | 0.02 nM | 0.01 nM | – | – | – | – |
| CSCC[C@H](NC(=O)[C@H](CC(C)C)NC(=O)[C@H](Cc1c[nH]c2ccccc12)NC(=O)[C@H](CCC(N)=O)NC(=O)[C@@H](NC(=O)[C@H](Cc1ccccc1)NC(=O)[C@H](CC(=O)O)NC(=O)[C@H](CCC(N)=O)NC(=O)[C@H](C)NC(=O)[C@H](CCCNC(=N)N)NC(=O)[C@H](CCCNC(=N)N)NC(=O)[C@H](CO)NC(=O)[C@H](CC(=O)O)NC(=O)[C@H](CC(C)C)NC(=O)[C@H](Cc1ccc(O)cc1)NC(=O)[C@H](CCCCN)NC(=O)[C@H](CO)NC(=O)[C@H](Cc1ccc(O)cc1)NC(=O)[C@H](CC(=O)O)NC(=O)[C@H](CO)NC(=O)[C@@H](NC(=O)[C@H](Cc1ccccc1)NC(=O)[C@@H](NC(=O)CNC(=O)[C@H](Cc1c[nH]cn1)NC(=O)[C@H](CO)NC(=O)[C@@H](N)Cc1c[nH]cn1)[C@@H](C)O)[C@@H](C)O)C(C)C)C(=O)N[C@H](C(=O)N[C@H](C(N)=O)[C@@H](C)O)[C@@H](C)O [PD51] | 0.03 nM | 0.02 nM | – | – | – | – |
| CC(C)C[C@H](NC(=O)[C@H](Cc1ccc(O)cc1)NC(=O)[C@H](CCCCN)NC(=O)[C@H](CO)NC(=O)[C@H](Cc1ccc(O)cc1)NC(=O)[C@H](CC(=O)O)NC(=O)[C@H](CO)NC(=O)[C@@H](NC(=O)[C@H](Cc1ccccc1)NC(=O)[C@@H](NC(=O)CNC(=O)[C@H](CCC(N)=O)NC(=O)[C@H](CO)NC(=O)[C@@H](N)Cc1c[nH]cn1)[C@@H](C)O)[C@@H](C)O)C(=O)N[C@@H](CC(=O)O)C(=O)N[C@@H](Cc1c[nH]c2ccccc12)C(=O)N[C@@H](CCCNC(=N)N)C(=O)N[C@@H](CCCNC(=N)N)C(=O)N[C@@H](C)C(=O)N[C@@H](CCC(N)=O)C(=O)N[C@@H](CC(=O)O)C(=O)N[C@@H](Cc1ccccc1)C(=O)N[C@H](C(=O)N[C@@H](CCC(N)=O)C(=O)N[C@@H](Cc1c[nH]c2ccccc12)C(=O)N[C@@H](CC(C)C)C(=O)N[C@@H](CCC(N)=O)C(=O)N[C@@H](CC(N)=O)C(=O)N[C@H](C(N)=O)[C@@H](C)O)C(C)C [PD44] | 0.02 nM | 0.01 nM | – | – | – | relatively balanced potent activity at the GCG and GLP-1 receptors |

More lines, in order of falling EC50 (human GCGR; Table 2, cAMP production), values ahead:

| EC50 (human GCGR; Table 2, cAMP production) | EC50 (human GLP1R; [1]) | Ratio (human GCGR; Table 7) | EC50 (human GCGR; [2]) | EC50 (human GLP1R; [3]) | Compound | balance of activity at the GCG and GLP-1 receptors (human GCGR; in words, both receptors) |
| --- | --- | --- | --- | --- | --- | --- |
| 0.07 nM | 0.02 nM | – | – | – | CC(C)C[C@H](NC(=O)[C@H](CC(C)C)NC(=O)[C@H](Cc1c[nH]c2ccccc12)NC(=O)[C@H](CC(=O)O)NC(=O)[C@@H](NC(=O)[C@H](Cc1ccccc1)NC(=O)[C@H](CC(=O)O)NC(=O)[C@H](CCC(N)=O)NC(=O)[C@H](C)NC(=O)[C@H](CCCNC(=N)N)NC(=O)[C@H](CCCNC(=N)N)NC(=O)[C@H](CO)NC(=O)[C@H](CC(=O)O)NC(=O)[C@H](CC(C)C)NC(=O)[C@H](Cc1ccc(O)cc1)NC(=O)[C@H](CCCCN)NC(=O)[C@H](CO)NC(=O)[C@H](Cc1ccc(O)cc1)NC(=O)[C@H](CC(=O)O)NC(=O)[C@H](CO)NC(=O)[C@@H](NC(=O)[C@H](Cc1ccccc1)NC(=O)[C@@H](NC(=O)CNC(=O)[C@H](CCC(N)=O)NC(=O)[C@H](CO)NC(=O)[C@@H](N)Cc1c[nH]cn1)[C@@H](C)O)[C@@H](C)O)C(C)C)C(=O)N[C@@H](CC(N)=O)C(=O)N[C@@H](C)C(N)=O [PD48] | – |
| 0.06 nM | 0.04 nM | – | – | – | CC[C@H](C)[C@H](NC(=O)[C@H](CC(C)C)NC(=O)[C@H](Cc1c[nH]c2ccccc12)NC(=O)[C@H](CCC(N)=O)NC(=O)[C@@H](NC(=O)[C@H](Cc1ccccc1)NC(=O)[C@H](CC(=O)O)NC(=O)[C@H](CCC(N)=O)NC(=O)[C@H](C)NC(=O)[C@H](CCCNC(=N)N)NC(=O)[C@H](CCCNC(=N)N)NC(=O)[C@H](CO)NC(=O)[C@H](CC(=O)O)NC(=O)[C@H](CC(C)C)NC(=O)[C@H](Cc1ccc(O)cc1)NC(=O)[C@H](CCCCN)NC(=O)[C@H](CO)NC(=O)[C@H](Cc1ccc(O)cc1)NC(=O)[C@H](CC(=O)O)NC(=O)[C@H](CO)NC(=O)[C@@H](NC(=O)[C@H](Cc1ccccc1)NC(=O)[C@@H](NC(=O)CNC(=O)[C@H](CCC(N)=O)NC(=O)[C@H](CO)NC(=O)[C@@H](N)Cc1c[nH]cn1)[C@@H](C)O)[C@@H](C)O)C(C)C)C(=O)N[C@@H](CC(N)=O)C(=O)N[C@@H](Cc1ccc(O)cc1)C(N)=O [PD31] | – |
| 0.03 nM | 0.02 nM | – | – | – | H-HSQGTFFSDYSKYLDSRRAQDFVQWLLET-NH2 [PD58] | – |
| 0.03 nM | 0.02 nM | – | – | – | H-HSQGIFFSDYSKYLDSRRAQDFVQWLMNT-NH2 [PD52] | – |
